Assay results published in patent publication US20240368120A1 (Terns Pharmaceuticals, Inc., priority 2023, published 2024).

Target: T1, human GLP-1R receptor (Homo sapiens, UniProt P43220)
T1 construct: expressed in transfected cells
Assay: GLP-1R low expression cell assay (cAMP TR-FRET, CHO-K1_hGLP-1Rlow_clone10 cells)
Format: cell-based
Settings: for EC50: cAMP TR-FRET, 30 min at 25° C.; for Emax: maximum activation relative to control GLP-1 peptide agonist
Outline: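 Readout is cAMP TR-FRET after 30 min compound stimulation at 25 °C of a low-GLP-1R-expressing CHO-K1 clone (1,000 cells/well), with 10-point 3-fold serial dilutions. Percent activation versus a control GLP-1 peptide, from duplicates, was Hill-fitted to give EC50.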

T1 sequence (P43220 24-463): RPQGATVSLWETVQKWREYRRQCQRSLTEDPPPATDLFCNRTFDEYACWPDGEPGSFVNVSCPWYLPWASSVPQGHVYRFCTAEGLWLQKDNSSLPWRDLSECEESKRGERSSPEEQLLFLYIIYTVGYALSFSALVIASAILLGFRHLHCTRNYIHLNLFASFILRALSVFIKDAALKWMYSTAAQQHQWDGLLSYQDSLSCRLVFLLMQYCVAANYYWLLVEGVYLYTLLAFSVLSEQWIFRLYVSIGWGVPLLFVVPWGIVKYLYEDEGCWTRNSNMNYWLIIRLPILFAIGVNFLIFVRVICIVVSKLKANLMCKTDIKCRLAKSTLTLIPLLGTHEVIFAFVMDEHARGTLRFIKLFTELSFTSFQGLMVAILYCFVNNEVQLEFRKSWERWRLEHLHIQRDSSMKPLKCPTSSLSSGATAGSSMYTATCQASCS

Row | Compound | EC50 | Emax
1 | CCOc1cc(C(=O)O)cc2c1nc(CN1CCC(c3cccc4c3OC[C@H](c3ccc(C#N)cc3F)O4)CC1)n2C [Compound 277, (S)-2-((4-(2-(4-Cyano-2-fluorophenyl)-2,3-dihydrobenzo[b][1,4]dioxin-5-yl)piperidin-1-yl)methyl)-4-ethoxy-1-methyl-1H-benzo[d]imidazole-6-carboxylic acid] | > 1000 nM | 50 to 85%
2 | CC(C)(C)Oc1cc(C(=O)O)cc2c1nc(CN1CCC(c3cccc(OCc4ccc(C#N)cc4F)n3)CC1)n2C[C@@H]1CCO1 [Compound 109, (S)-4-(tert-Butoxy)-2-((4-(6-((4-cyano-2-fluorobenzyl)oxy)pyridin-2-yl)piperidin-1-yl)methyl)-1-(oxetan-2-ylmethyl)-1H-benzo[d]imidazole-6-carboxylic acid] | < 10 nM | > 85%
3 | COc1cc(C(=O)O)cc2c1nc([C@@H](C)N1CCC(c3cccc4c3O[C@@](C)(c3ccc(Cl)cn3)O4)CC1)n2C [Compound 97, 2-((R)-1-(4-((S)-2-(5-chloropyridin-2-yl)-2-methylbenzo[d][1,3]dioxol-4-yl)piperidin-1-yl)ethyl)-4-methoxy-1-methyl-1H-benzo[d]imidazole-6-carboxylic acid] | > 1000 nM | > 85%
4 | Cn1c(CN2CCC(c3ccc(Cl)c(OCc4ccc(Cl)cc4F)c3)CC2)nc2c(OC(F)F)cc(C(=O)O)cc21 [Compound 194, 2-((4-(4-Chloro-3-((4-chloro-2-fluorobenzyl)oxy)phenyl)piperidin-1-yl)methyl)-4-(difluoromethoxy)-1-methyl-1H-benzo[d]imidazole-6-carboxylic acid] | 100 to 1000 nM | > 85%
5 | Cn1c(CN2CCC(c3cccc(OCc4ccc(Cl)cc4F)c3)CC2)nc2c(OC(F)F)cc(N3CC(=O)NS3(=O)=O)cc21 [Compound 281, 5-(2-((4-(3-((4-Chloro-2-fluorobenzyl)oxy)phenyl)piperidin-1-yl)methyl)-4-(difluoromethoxy)-1-methyl-1H-benzo[d]imidazol-6-yl)-1,2,5-thiadiazolidin-3-one 1,1-dioxide] | > 1000 nM | 50 to 85%
6 | CCOc1cc(C(=O)O)cc2c1nc(CN1CCC(c3cccc4c3O[C@H](c3ccc(Cl)cc3F)CO4)CC1)n2C [Compound 265, (R)-2-((4-(3-(4-chloro-2-fluorophenyl)-2,3-dihydrobenzo[b][1,4]dioxin-5-yl)piperidin-1-yl)methyl)-4-ethoxy-1-methyl-1H-benzo[d]imidazole-6-carboxylic acid] | 10 to 100 nM | > 85%
7 | Cn1c(CN2CCC(n3ccc(OCc4ccc(Cl)cc4F)n3)CC2)nc2c(OC(F)F)cc(C(=O)O)cc21 [Compound 217, 2-((4-(3-((4-Chloro-2-fluorobenzyl)oxy)-1H-pyrazol-1-yl)piperidin-1-yl)methyl)-4-(difluoromethoxy)-1-methyl-1H-benzo[d]imidazole-6-carboxylic acid] | > 1000 nM | > 85%
8 | Cn1c(CN2CCC(Oc3cccc(COc4ccc(Cl)cc4F)n3)CC2)nc2c(OC(F)F)cc(C(=O)O)cc21 [Compound 196, 2-((4-((6-((4-Chloro-2-fluorophenoxy)methyl)pyridin-2-yl)oxy)piperidin-1-yl)methyl)-4-(difluoromethoxy)-1-methyl-1H-benzo[d]imidazole-6-carboxylic acid] | 10 to 100 nM | > 85%
9 | Cn1c(CN2CCC(c3cccc(N4CCc5cc(C#N)cc(F)c5C4)n3)CC2)nc2c(OC(F)F)cc(C(=O)O)cc21 [Compound 151, 2-((4-(6-(6-Cyano-8-fluoro-3,4-dihydroisoquinolin-2(1H)-yl)pyridin-2-yl)piperidin-1-yl)methyl)-4-(difluoromethoxy)-1-methyl-1H-benzo[d]imidazole-6-carboxylic acid] | 100 to 1000 nM | > 85%
10 | COc1cc(C(=O)O)cc2c1nc(CN1CCC(c3cccc4c3O[C@@](C)(c3ccc(Cl)cn3)O4)CC1)n2C(C)C [Compound 86, (S)-2-((4-(2-(5-Chloropyridin-2-yl)-2-methylbenzo[d][1,3]dioxol-4-yl)piperidin-1-yl)methyl)-1-isopropyl-4-methoxy-1H-benzo[d]imidazole-6-carboxylic acid] | 100 to 1000 nM | > 85%
11 | Cn1c(CN2CCC(c3cccc(OCc4ccc(F)cc4)n3)CC2)nc2c(OC(F)F)cc(C(=O)O)cc21 [Compound 254, 4-(Difluoromethoxy)-2-((4-(6-((4-fluorobenzyl)oxy)pyridin-2-yl)piperidin-1-yl)methyl)-1-methyl-1H-benzo[d]imidazole-6-carboxylic acid] | 100 to 1000 nM | –
12 | Cn1c(CN2CCC(c3cccc(OCc4ccc(C#N)cc4F)n3)CC2)nc2c(OC(C)(F)F)cc(C(=O)O)cc21 [Compound 180, 2-((4-(6-((4-Cyano-2-fluorobenzyl)oxy)pyridin-2-yl)piperidin-1-yl)methyl)-4-(1,1-difluoroethoxy)-1-methyl-1H-benzo[d]imidazole-6-carboxylic acid] | 10 to 100 nM | > 85%
13 | O=C(O)c1cc(OC(F)F)c2c(c1)nc(CN1CCC(c3cccc(OCc4ccc(Cl)cc4F)n3)CC1)n2CF [Compound 206, 2-((4-(6-((4-Chloro-2-fluorobenzyl)oxy)pyridin-2-yl)piperidin-1-yl)methyl)-7-(difluoromethoxy)-1-(fluoromethyl)-1H-benzo[d]imidazole-5-carboxylic acid] | > 1000 nM | < 25%
14 | Cn1c(CN2CC=C(c3ccc(F)c(OCc4ccc(Cl)cc4F)c3)CC2)nc2c(OC(F)F)cc(C(=O)O)cc21 [Compound 152, 2-((4-(3-((4-Chloro-2-fluorobenzyl)oxy)-4-fluorophenyl)-3,6-dihydropyridin-1(2H)-yl)methyl)-4-(difluoromethoxy)-1-methyl-1H-benzo[d]imidazole-6-carboxylic acid] | 10 to 100 nM | > 85%
15 | Cn1c(CN2CCC(c3cccc(OCc4ccc(Cl)cc4F)n3)CC2)nc2c(O[C@H]3C[C@@H](F)C3)cc(C(=O)O)cc21 [Compound 379, 2-((4-(6-((4-Chloro-2-fluorobenzyl)oxy)pyridin-2-yl)piperidin-1-yl)methyl)-4-((1s,3s)-3-fluorocyclobutoxy)-1-methyl-1H-benzo[d]imidazole-6-carboxylic acid] | 10 to 100 nM | > 85%

The remaining lines, values ahead:

Row | EC50 | Emax | Compound
16 | < 10 nM | > 85% | [2H]C([2H])([2H])Oc1cc(C(=O)O)cc2c1nc(CN1CCC(c3cccc4c3O[C@@](C)(c3ccc(Cl)cn3)O4)CC1)n2C[C@@H]1CCO1 [Compound 98, 2-((4-((S)-2-(5-chloropyridin-2-yl)-2-methylbenzo[d][1,3]dioxol-4-yl)piperidin-1-yl)methyl)-4-(methoxy-d3)-1-(((S)-oxetan-2-yl)methyl)-1H-benzo[d]imidazole-6-carboxylic acid]
17 | < 10 nM | > 85% | COc1cc(C(=O)O)c(F)c2c1nc(CN1CCC(c3cccc(OCc4ccc(C#N)cc4F)n3)CC1)n2C[C@@H]1CCO1 [Compound 117, (S)-2-((4-(6-((4-Cyano-2-fluorobenzyl)oxy)pyridin-2-yl)piperidin-1-yl)methyl)-7-fluoro-4-methoxy-1-(oxetan-2-ylmethyl)-1H-benzo[d]imidazole-6-carboxylic acid]
18 | 10 to 100 nM | > 85% | CCC(F)Oc1cc(C(=O)O)cc2c1nc(CN1CCC(c3cccc(OCc4ccc(Cl)cc4F)n3)CC1)n2C (centres unmarked) [Compound 351, 2-((4-(6-((4-Chloro-2-fluorobenzyl)oxy)pyridin-2-yl)piperidin-1-yl)methyl)-4-(1-fluoropropoxy)-1-methyl-1H-benzo[d]imidazole-6-carboxylic acid]
19 | 10 to 100 nM | > 85% | CCOc1cc(C(=O)O)cc2c1nc(CN1CCC(c3cccc4c3O[C@H](c3ccc(C#N)cc3F)CO4)CC1)n2C [Compound 288, (R)-2-((4-(3-(4-Cyano-2-fluorophenyl)-2,3-dihydrobenzo[b][1,4]dioxin-5-yl)piperidin-1-yl)methyl)-4-ethoxy-1-methyl-1H-benzo[d]imidazole-6-carboxylic acid]
20 | < 10 nM | – | COc1cc(C(=O)O)cc2c1nc(CN1CC[C@@H](c3cccc(OCc4ccc(C#N)cc4F)n3)[C@@H]3C[C@@H]31)n2C[C@@H]1CCO1 [Compound 387, 2-(((1S,5R,6S)-5-(6-((4-cyano-2-fluorobenzyl)oxy)pyridin-2-yl)-2-azabicyclo[4.1.0]heptan-2-yl)methyl)-4-methoxy-1-(((S)-oxetan-2-yl)methyl)-1H-benzo[d]imidazole-6-carboxylic acid]
21 | < 10 nM | > 85% | CN(c1nc2c(OC(F)F)cc(C(=O)O)cc2n1C[C@@H]1CCO1)[C@H]1CC[C@H](c2cccc(OCc3ccc(C#N)cc3F)n2)CC1 [Compound 132, 2-(((1r,4S)-4-(6-((4-cyano-2-fluorobenzyl)oxy)pyridin-2-yl)cyclohexyl) (methyl)amino)-4-(difluoromethoxy)-1-(((S)-oxetan-2-yl)methyl)-1H-benzo[d]imidazole-6-carboxylic acid]
22 | < 10 nM | > 85% | Cn1c(CN2CCC(c3cccc(OCc4ccc(C#N)cc4F)n3)CC2)nc2c(N)cc(C(=O)O)cc21 [Compound 115, 4-amino-2-((4-(6-((4-cyano-2-fluorobenzyl)oxy)pyridin-2-yl)piperidin-1-yl)methyl)-1-methyl-1H-benzo[d]imidazole-6-carboxylic acid]
23 | < 10 nM | > 85% | Cn1c(CN2CCC(c3cccc(OCc4ccc(Cl)cc4F)n3)CC2)nc2c(OCC3CC3)cc(C(=O)O)cc21 [Compound 357, 2-((4-(6-((4-Chloro-2-fluorobenzyl)oxy)pyridin-2-yl)piperidin-1-yl)methyl)-4-(cyclopropylmethoxy)-1-methyl-1H-benzo[d]imidazole-6-carboxylic acid]
